Laboratory results taken from patent US8530380B2 (priority 1997, dated 2013).

Test system: Phytophthora infestans
Assay type: in vivo
Settings: single active ingredient, 3.1 ppm in the spray liquor; tomato plants infected next day, evaluated after 6 days

| SMILES | Efficacy in % of the untreated control [%] |
| --- | --- |
| O=C(Nc1ccccc1-c1ccc(F)cc1)c1cccnc1Cl [Compound I.1] | 0 |
| COCC(=O)N(c1c(C)cccc1C)C(C)C(=O)OC (centres unmarked) [Compound IV.3, metalaxyl] | 0 |
